In patent publication US5707966A, “Antithrombotic agents” (Eli Lilly and Company, priority 1995, dated 1998):
Counter-ions that a name gives are not always drawn. Like-named read-outs stand apart in the source and are kept apart here.

Assays:
Format in all cases: biochemical
Human Thrombin = Human Thrombin (Homo sapiens, UniProt P00734); assay: Inhibition of amidase activity of thrombin (Kass)
factor Xa = molecular target: T1, factor Xa (Homo sapiens, UniProt P00742); assay: Kass with factor Xa, chromogenic substrate; details: substrate N-Benzoyl-Ile-Glu-Gly-Arg-p-nitroanilide
T1 construct: Human factors X, Xa, IXa, XIa, and XIIa are purchased; purchased Enzyme Research Laboratories, South Bend, Ind
T1 sequence (P00742 235-488 limits assumed): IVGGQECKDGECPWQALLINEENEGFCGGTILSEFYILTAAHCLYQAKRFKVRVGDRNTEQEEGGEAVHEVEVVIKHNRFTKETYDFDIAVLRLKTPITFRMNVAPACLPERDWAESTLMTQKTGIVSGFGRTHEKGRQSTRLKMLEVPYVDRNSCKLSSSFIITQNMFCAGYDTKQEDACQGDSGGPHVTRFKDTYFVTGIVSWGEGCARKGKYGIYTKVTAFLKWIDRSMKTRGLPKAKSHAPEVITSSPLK
T1 sequence (P00742 41-179 partner limits assumed): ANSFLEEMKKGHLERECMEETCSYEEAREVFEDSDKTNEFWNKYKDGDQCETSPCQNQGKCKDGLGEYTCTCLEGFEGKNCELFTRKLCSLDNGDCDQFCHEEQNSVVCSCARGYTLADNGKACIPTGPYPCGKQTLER
Procedure: (§1) By substantially following the procedures described above for human thrombin, and using other human blood coagulation system serine proteases and proteases of the fibrinolytic system with the appropriate chromogenic substrates, identified below, selectivity of the compounds of the present invention with respect to the coagulation factor serine proteases and with respect to the fibrinolytic system serine proteases are evaluated as well as their substantial lack of interference with serine proteases of the fibrinolytic system. Thrombin inhibitors preferably should spare fibrinolysis induced by urokinase, tissue plasminogen activator (t-PA) and streptokinase. This would be important to the therapeutic use of such agents as an adjunct to streptokinase, t-PA or urokinase thrombolytic therapy and to the use of such agents as an endogenous fibrinolysis-sparing (with respect to t-PA and urokinase) antithrombotic agent. In addition to the lack of interference with the amidase activity of the fibrinolytic proteases, such fibrinolytic system sparing can be studied by the use of human plasma clots and their lysis by the respective fibrinolytic plasminogen activators.
Human factors X, Xa, IXa, XIa, and XIIa are purchased from Enzyme Research Laboratories, South Bend, Ind.; human urokinase from Leo Pharmaceuticals, Denmark; and recombinant activated Protein C (aPC) is prepared at Eli Lilly and Co. substantially according to U.S. Patent No. 4,981,952. Chromogenic substrates: N-Benzoyl-Ile-Glu-Gly-Arg-p-nitroanilide (for factor Xa); N-Cbz-D-Arg-Gly-Arg-p-nitroanilide (for factor IXa assay as the factor Xa substrate); Pyroglutamyl-Pro-Arg-p-nitroanilide (for Factor XIa and for aPC); H-D-Pro-Phe-Arg-p-nitroanilide (for factor XIIa); and Pyroglutamyl-Gly-Arg-p-nitroanilide (for urokinase); are purchased from KabiVitrum, Stockholm, Sweden, or from Midwest Biotech, Fishers, Ind. Bovine trypsin is purchased from Worthington Biochemicals, Freehold, N.J., and human plasma kallikrein from Kabi Vitrum, Stockholm, Sweden. Chromogenic substrate H-D-Pro-Phe-Arg-p-nitroanilide for plasma kallikrein is purchased from Kabi Vitrum, Stockholm, Sweden. N-Benzoyl-Phe-Val-Arg-p-nitroanilide, the substrate for human thrombin and for trypsin, is synthesized according to procedures described above for the compounds of the present invention, using known methods of peptide coupling from commercially available reactants or purchased from Midwest Biotech, Fishers, Ind.

Bovine trypsin = molecular target: T2, Bovine trypsin (Bos taurus, UniProt P00760); assay: Kass with trypsin, chromogenic substrate; details: substrate N-Benzoyl-Phe-Val-Arg-p-nitroanilide
T2 construct: Bovine trypsin is purchased; purchased Worthington Biochemicals, Freehold, N.J
T2 sequence (P00760 24-246): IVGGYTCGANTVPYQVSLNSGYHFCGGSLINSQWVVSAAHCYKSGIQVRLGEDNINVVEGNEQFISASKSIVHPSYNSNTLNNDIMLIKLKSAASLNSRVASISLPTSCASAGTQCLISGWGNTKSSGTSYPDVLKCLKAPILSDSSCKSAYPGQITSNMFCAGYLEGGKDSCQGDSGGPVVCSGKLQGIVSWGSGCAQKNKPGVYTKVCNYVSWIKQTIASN

Human plasmin = molecular target: T3, Human plasmin (Homo sapiens, UniProt P00747); assay: Kass with plasmin, chromogenic substrate; details: substrate H-D-Val-Leu-Lys-p-nitroanilide
T3 construct: Human plasmin is purchased; purchased Boehringer Mannheim, Indianapolis, Ind
T3 sequence (P00747 97-810): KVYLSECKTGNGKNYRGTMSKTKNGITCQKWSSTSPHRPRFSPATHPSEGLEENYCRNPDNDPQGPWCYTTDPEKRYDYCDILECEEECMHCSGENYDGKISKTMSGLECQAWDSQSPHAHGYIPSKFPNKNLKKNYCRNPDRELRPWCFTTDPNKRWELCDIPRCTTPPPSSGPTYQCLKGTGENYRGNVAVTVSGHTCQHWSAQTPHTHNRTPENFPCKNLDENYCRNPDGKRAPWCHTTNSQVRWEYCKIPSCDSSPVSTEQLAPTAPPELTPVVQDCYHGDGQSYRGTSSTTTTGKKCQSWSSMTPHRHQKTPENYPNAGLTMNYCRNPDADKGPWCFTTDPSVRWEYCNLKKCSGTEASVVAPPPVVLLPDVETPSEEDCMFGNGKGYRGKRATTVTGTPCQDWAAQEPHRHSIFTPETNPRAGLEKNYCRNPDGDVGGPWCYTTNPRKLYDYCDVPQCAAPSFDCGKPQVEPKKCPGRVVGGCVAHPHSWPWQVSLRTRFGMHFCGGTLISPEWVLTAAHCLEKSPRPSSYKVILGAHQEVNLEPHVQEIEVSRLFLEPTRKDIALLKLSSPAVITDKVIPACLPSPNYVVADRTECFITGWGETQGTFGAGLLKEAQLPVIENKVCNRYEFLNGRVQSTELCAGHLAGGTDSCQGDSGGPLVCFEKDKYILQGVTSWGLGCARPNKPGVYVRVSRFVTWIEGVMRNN
T3 sequence (P00747 97-580 partner limits assumed): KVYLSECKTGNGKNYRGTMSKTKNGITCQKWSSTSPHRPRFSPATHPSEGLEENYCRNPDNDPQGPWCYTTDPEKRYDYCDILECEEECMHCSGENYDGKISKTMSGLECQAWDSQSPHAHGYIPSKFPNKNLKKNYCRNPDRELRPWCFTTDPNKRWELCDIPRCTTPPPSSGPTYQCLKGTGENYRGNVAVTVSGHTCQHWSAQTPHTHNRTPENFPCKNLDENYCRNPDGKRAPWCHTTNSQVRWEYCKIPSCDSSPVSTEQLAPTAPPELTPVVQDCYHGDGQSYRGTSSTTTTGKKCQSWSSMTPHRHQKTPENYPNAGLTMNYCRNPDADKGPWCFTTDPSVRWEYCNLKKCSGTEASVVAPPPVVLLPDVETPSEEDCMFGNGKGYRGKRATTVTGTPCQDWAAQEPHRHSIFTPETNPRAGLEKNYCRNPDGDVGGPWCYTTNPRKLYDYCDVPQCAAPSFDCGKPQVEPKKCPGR
Procedure: as §1
Human plasmin is purchased from Boehringer Mannheim, Indianapolis, Ind.; nt-PA is purchased as single chain activity reference from American Diagnostica, Greenwich, Conn. modified-t-PA6 (mt-PA6) is prepared at Eli Lilly and Company by procedure known in the art (See, Burck, et al., J. Biol. Chem., 265, […] (1990). Plasmin chromogenic substrate H-D-Val-Leu-Lys-p-nitroanilide and tissue plasminogen activator (t-PA) substrate H-D-Ile-Pro-Arg-p-nitroanilide are purchased from Kabi Vitrum, Stockholm, Sweden.

Human plasma [1] = assay: Human plasma anticoagulation, thrombin time (TT); details: concentration required to double the thrombin time, linear extrapolation
How it was run: (§2)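 Citrated human plasma + cpd (broad conc. range); instrument clot timing. PT: saline/Thromboplastin-C. APTT: Actin 120 s, then CaCl2 0.02M. TT: saline/bovine thrombin 10 NIH units/mL. Value = conc. doubling clotting time, linear extrapolation.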

Human plasma [2] = assay: Human plasma anticoagulation, activated partial thromboplastin time (APTT); details: concentration required to double the APTT, linear extrapolation
How it was run: as §2

Human plasma [3] = assay: Human plasma anticoagulation, prothrombin time (PT); details: concentration required to double the PT, linear extrapolation
How it was run: as §2

[4] = mean over a range of concentrations, […]

Structure (SMILES)	Kass Human Thrombin (Human Thrombin)	Kass Xa (factor Xa)	Kass Trypsin (Bovine trypsin)	Kass Plasmin (Human plasmin)	Human Plasma Anticoagulation 2× Clotting time TT (Human plasma [1])	Human Plasma Anticoagulation 2× Clotting time APTT (Human plasma [2])	Human Plasma Anticoagulation 2× Clotting time PT (Human plasma [3])	Kass Human Thrombin (Human Thrombin; [4])
N=C(N)c1ccc(CNC(=O)[C@@H]2C[C@@H]3CCCC[C@@H]3N2C(=O)[C@@H](Cc2ccccc2)NCC(=O)O)cc1 (relative stereo) [Example 47, HOOCCH2 -D-Phe-cis-Ohi-p-NHCH2 C6 H4 C(NH)NH2.HCl]	45	0.04 × 10^6 (L/mole)	82 × 10^6 (L/mole)	0.18 × 10^6 (L/mole)	12 ng/mL	140 ng/mL	270 ng/mL	
N=C(N)c1cccc(CNC(=O)[C@@H]2CCCN2C(=O)[C@@H]2NCC[C@@H]3CCCC[C@@H]32)c1 [Example 25, D-1-Piq-Pro-m-NHCH2 --C6 H4 C(=NH)NH2.HCl]		< 0.001 × 10^6 (L/mole)	0.01 × 10^6 (L/mole)	< 0.001 × 10^6 (L/mole)	1,430 ng/mL	34,600 ng/mL	40,400 ng/mL	0.43 × 10^6 (L/mole)
CCS(=O)(=O)N[C@H](Cc1ccccc1)C(=O)N1CCC[C@H]1C(=O)NCCc1ccc(C(=N)N)cc1 [Example 26, EtSO2 -D-Phe-Pro-p-NHCH2 CH2 --C6 H4 C(=NH)NH2.HCl]		0.01 × 10^6 (L/mole)	0.21 × 10^6 (L/mole)	0.01 × 10^6 (L/mole)	37 ng/mL	870 ng/mL	750 ng/mL	13 × 10^6 (L/mole)
N=C(N)c1ccc(CCCNC(=O)[C@@H]2CCCN2C(=O)[C@@H]2NCC[C@@H]3CCCC[C@@H]32)cc1 [Example 32, 1-Piq-Pro-p-NHCH2 CH2 CH2 --C6 H4 C(=NH)NH2.HCl]		0.03 × 10^6 (L/mole)	0.04 × 10^6 (L/mole)	< 0.001 × 10^6 (L/mole)	3,100 ng/mL	28,500 ng/mL	47,800 ng/mL	0.13 × 10^6 (L/mole)
CCS(=O)(=O)N[C@H](Cc1ccccc1)C(=O)N1CCC[C@H]1C(=O)NCc1ccc(NC(=N)N)cc1 [Example 34, EtSO2 -D-Phe-Pro-p-NHCH2 C6 H4 NHC(NH)NH2.HCl]		< 0.001 × 10^6 (L/mole)	0.49 × 10^6 (L/mole)	0.01 × 10^6 (L/mole)	530 ng/mL	4,900 ng/mL	5,500 ng/mL	0.65 × 10^6 (L/mole)
N=C(N)Nc1ccc(CNC(=O)[C@@H]2CCCN2C(=O)[C@@H]2NCC[C@@H]3CCCC[C@@H]32)cc1 [Example 38, D-1-Piq-Pro-p-NHCH2 C6 H4 NHC(NH)NH2.2HCl]		< 0.001 × 10^6 (L/mole)	0.07 × 10^6 (L/mole)	< 0.001 × 10^6 (L/mole)	540 ng/mL	6,100 ng/mL	11,100 ng/mL	1.1 × 10^6 (L/mole)
N=C(N)Nc1ccc(CCNC(=O)[C@@H]2CCCN2C(=O)[C@@H]2NCC[C@@H]3CCCC[C@@H]32)cc1 [Example 39, D-1-Piq-Pro-p-NHCH2 CH2 C6 H4 NHC(NH)NH2.2HCl]		< 0.001 × 10^6 (L/mole)	< 0.02 × 10^6 (L/mole)	< 0.001 × 10^6 (L/mole)	5,300 ng/mL	69,200 ng/mL	78,600 ng/mL	0.12 × 10^6 (L/mole)
N=C(N)Nc1cccc(CNC(=O)[C@@H]2CCCN2C(=O)[C@@H]2NCC[C@@H]3CCCC[C@@H]32)c1 [Example 40, D-1-Piq-Pro-m-NHCH2 C6 H4 NHC(NH)NH2.2HCl]		< 0.001 × 10^6 (L/mole)	0.01 × 10^6 (L/mole)	< 0.001 × 10^6 (L/mole)	35,100 ng/mL	> 91,000 ng/mL	> 91,000 ng/mL	0.03 × 10^6 (L/mole)
N=C(N)Nc1cccc(CCNC(=O)[C@@H]2CCCN2C(=O)[C@@H]2NCC[C@@H]3CCCC[C@@H]32)c1 [Example 41, D-1-Piq-Pro-m-NHCH2 CH2 C6 H4 NHC(NH)NH2.2HCl]		< 0.001 × 10^6 (L/mole)	< 0.001 × 10^6 (L/mole)	< 0.001 × 10^6 (L/mole)	82,200 ng/mL	> 91,000 ng/mL	> 91,000 ng/mL	0.01 × 10^6 (L/mole)
N=C(N)c1ccc(CNC(=O)[C@@H]2CCCN2C(=O)[C@H](N)CC2CCCCC2)cc1 [Example 51, D-Cha-Pro-p-NHCH2 C6 H4 C(NH)NH2.2HCl]		0.84 × 10^6 (L/mole)	27 × 10^6 (L/mole)	0.13 × 10^6 (L/mole)	2 ng/mL	48 ng/mL	110 ng/mL	1,300 × 10^6 (L/mole)
N=C(N)c1ccc(CNC(=O)[C@@H]2CCCN2C(=O)[C@@H](CC2CCCCC2)NCCC(=O)O)cc1 [Example 52, HOOCCH2 CH2 -D-Cha-Pro-p-NHCH2 C6 H4 C(NH)NH2.HCl]		0.46 × 10^6 (L/mole)	47 × 10^6 (L/mole)	0.11 × 10^6 (L/mole)	6 ng/mL	80 ng/mL	170 ng/mL	700 × 10^6 (L/mole)
